The source of these data is US9758538B2, “Pyrimidine derivatives” (PFIZER INC., priority 2015, dated 2017).

The target of the experiment is truncated PI3Kα (p110α/iSH2 p85α), PI3KA_Act (Homo sapiens (Human), UniProt P42336). The experiment can be described thus: PI3Kα biochemical kinase assay, fluorescence polarization format (PI3KA_Act). As to conditions: 0.5 nM p110α/iSH2 p85, 1 mM ATP, 30 μM PIP2, 15-min preincubation, Morrison equation fit. An outline of the steps:
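Enzyme: His-tagged p110α/p85α niSH2 complex from Sf21 baculovirus expression, IMAC-purified, tag cleaved, then SEC. Reactions ran 30 min at room temperature, stopped with 10 mM EDTA pH 8 (final), and were read by fluorescence polarization.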

SMILES strings stand for the structures. Read-outs that look alike come from different tables or passages of the source.

truncated PI3Kα (p110α/iSH2 p85α), PI3KA_Act, sequence (P42336 whole entry, the tested form may be a part): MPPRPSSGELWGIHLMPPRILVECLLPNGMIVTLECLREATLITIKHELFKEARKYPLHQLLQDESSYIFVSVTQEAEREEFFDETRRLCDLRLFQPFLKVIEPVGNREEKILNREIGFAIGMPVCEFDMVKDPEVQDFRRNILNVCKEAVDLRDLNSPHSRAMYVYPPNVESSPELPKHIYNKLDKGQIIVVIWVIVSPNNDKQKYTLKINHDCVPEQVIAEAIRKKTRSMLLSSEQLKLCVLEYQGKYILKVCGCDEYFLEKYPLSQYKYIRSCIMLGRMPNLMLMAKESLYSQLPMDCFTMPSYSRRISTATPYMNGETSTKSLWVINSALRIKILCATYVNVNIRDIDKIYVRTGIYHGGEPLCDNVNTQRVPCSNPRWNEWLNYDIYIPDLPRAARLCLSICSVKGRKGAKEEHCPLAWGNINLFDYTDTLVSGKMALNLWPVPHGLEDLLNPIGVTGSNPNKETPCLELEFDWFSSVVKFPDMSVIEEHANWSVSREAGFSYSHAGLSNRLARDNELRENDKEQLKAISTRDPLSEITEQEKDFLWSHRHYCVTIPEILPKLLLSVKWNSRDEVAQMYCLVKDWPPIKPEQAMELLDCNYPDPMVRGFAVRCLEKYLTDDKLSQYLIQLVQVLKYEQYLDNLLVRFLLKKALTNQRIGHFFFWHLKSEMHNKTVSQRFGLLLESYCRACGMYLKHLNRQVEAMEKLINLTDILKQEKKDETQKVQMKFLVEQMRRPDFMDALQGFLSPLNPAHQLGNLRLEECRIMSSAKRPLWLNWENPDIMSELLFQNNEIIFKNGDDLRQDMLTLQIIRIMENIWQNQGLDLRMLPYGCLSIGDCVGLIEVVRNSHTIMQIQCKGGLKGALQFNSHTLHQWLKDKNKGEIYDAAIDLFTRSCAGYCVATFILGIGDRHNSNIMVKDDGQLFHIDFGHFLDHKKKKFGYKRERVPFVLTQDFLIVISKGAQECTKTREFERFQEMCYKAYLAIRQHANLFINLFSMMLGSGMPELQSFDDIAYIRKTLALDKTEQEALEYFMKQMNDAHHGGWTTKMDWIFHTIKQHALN

`Nc1ncc(-c2cc(N[C@@]3(CO)CCN(C(=O)C4(F)CNC4)C3)nc(N3CCOCC3)n2)cn1` [Example 97, [(3S)-3-{[2′-amino-2-(morpholin-4-yl)-4,5′-bipyrimidin-6-yl]amino}-3-(hydroxymethyl)pyrrolidin-1-yl](3-fluoroazetidin-3-yl)methanone]: the inhibitory constant (Ki) (read-out: PI3KA_Act Ki) was less than 0.018 nM.

On to `Nc1ncc(-c2nc(N[C@@]3(CO)CCN(C(=O)OCC(F)F)C3)nc(N3CCOCC3)n2)cn1` [Example 99, 2,2-difluoroethyl (3S)-3-{[4-(2-aminopyrimidin-5-yl)-6-(morpholin-4-yl)-1,3,5-triazin-2-yl]amino}-3-(hydroxymethyl)pyrrolidine-1-carboxylate], for which the Ki (read-out: PI3KA_Act Ki) turned out to be 0.027 nM.

As for `CN(C)C(=O)CN1CC[C@](CO)(Nc2cc(-c3cnc(N)nc3)nc(N3CCOCC3)n2)C1` [Example 100, 2-[(3S)-3-{[2′-amino-2-(morpholin-4-yl)-4,5′-bipyrimidin-6-yl]amino}-3-(hydroxymethyl)pyrrolidin-1-yl]-N,N-dimethylacetamide], under “read-out: PI3KA_Act Ki”, the Ki was found to be 1.48 nM.

In the case of `Nc1ncc(-c2nc(N3CCOCC3)nc(N[C@@]3(CO)CCN(C(=O)OC4CC4)C3)c2F)cn1` [Example 101, cyclopropyl (3S)-3-{[2′-amino-5-fluoro-2-(morpholin-4-yl)-4,5′-bipyrimidin-6-yl]amino}-3-(hydroxymethyl)pyrrolidine-1-carboxylate], the Ki (read-out: PI3KA_Act Ki) worked out at 0.068 nM.

As for `C[C@H]1COCCN1c1nc(N[C@@]2(CO)CCN(C(=O)OC3CC3)C2)cc(-c2cnc(N)nc2)n1` [Example 102, cyclopropyl (3S)-3-({2′-amino-2-[(3S)-3-methylmorpholin-4-yl]-4,5′-bipyrimidin-6-yl}amino)-3-(hydroxymethyl)pyrrolidine-1-carboxylate], the Ki (read-out: PI3KA_Act Ki) was less than 0.018 nM.

Take `Nc1ncc(-c2nc(N[C@@]3(CO)CCN(C(=O)OC4CC4)C3)nc(N3CCOCC3)n2)cn1` [Example 103, cyclopropyl (3S)-3-{[4-(2-aminopyrimidin-5-yl)-6-(morpholin-4-yl)-1,3,5-triazin-2-yl]amino}-3-(hydroxymethyl)pyrrolidine-1-carboxylate]: the inhibitory constant (Ki) (read-out: PI3KA_Act Ki) was determined as 0.107 nM.

As to `C[C@H]1COCCN1c1nc(N[C@@]2(CO)CCN(C(=O)C3COC3)C2)cc(-c2cnc(N)nc2)n1` [Example 104, [(3S)-3-({2′-amino-2-[(3S)-3-methylmorpholin-4-yl]-4,5′-bipyrimidin-6-yl}amino)-3-(hydroxymethyl)pyrrolidin-1-yl](oxetan-3-yl)methanone], the Ki (read-out: PI3KA_Act Ki) was found to be 0.674 nM.

Regarding `Nc1ncc(-c2cc(NC3(CF)CCN(C(=O)OCc4ccccc4)C3)nc(N3CCOCC3)n2)cn1` (stereo not shown) [Example 105, benzyl 3-{[2′-amino-2-(morpholin-4-yl)-4,5′-bipyrimidin-6-yl]amino}-3-(fluoromethyl)pyrrolidine-1-carboxylate], the inhibition constant Ki (read-out: PI3KA_Act Ki) was found to be 0.489 nM.

Take `CC(=O)N1CC[C@](C)(Nc2nc(N3CCOCC3)nc(-c3cnc(N)nc3)c2F)C1` [Example 106, 1-[(3S)-3-{[2′-amino-5-fluoro-2-(morpholin-4-yl)-4,5′-bipyrimidin-6-yl]amino}-3-methylpyrrolidin-1-yl]ethanone]: the Ki (read-out: PI3KA_Act Ki) came out at 0.12 nM.

Consider `CC(C)C(=O)N1CC[C@](C)(Nc2nc(N3CCOCC3)nc(-c3cnc(N)nc3)c2F)C1` [Example 107, 1-[(3S)-3-{[2′-amino-5-fluoro-2-(morpholin-4-yl)-4,5′-bipyrimidin-6-yl]amino}-3-methylpyrrolidin-1-yl]-2-methylpropan-1-one], for which the Ki (read-out: PI3KA_Act Ki) was found to be 0.23 nM.

Consider `CC(C)(C)OC(=O)N1CC[C@](C)(Nc2nc(N3CCOCC3)nc(-c3cnc(N)nc3)c2F)C1` [Example 108, tert-butyl (3S)-3-{[2′-amino-5-fluoro-2-(morpholin-4-yl)-4,5′-bipyrimidin-6-yl]amino}-3-methylpyrrolidine-1-carboxylate], for which, for the setting “read-out: PI3KA_Act Ki”, the Ki was found to be 0.036 nM.

As for `CC(C)(C)OC(=O)N1CCC(CF)(Nc2cc(-c3cnc(N)nc3)nc(N3CCOCC3)n2)C1` (stereo not shown) [Example 110, tert-butyl 3-{[2′-amino-2-(morpholin-4-yl)-4,5′-bipyrimidin-6-yl]amino}-3-(fluoromethyl)pyrrolidine-1-carboxylate], where the note is “read-out: PI3KA_Act Ki”, the inhibitory constant (Ki) was determined as 0.072 nM.

As to `C[C@H]1COCCN1c1nc(N[C@@]2(CO)CCN(C(=O)OC(C)(C)C)C2)c(F)c(-c2cnc(N)nc2)n1` [Example 111, tert-butyl (3S)-3-({2′-amino-5-fluoro-2-[(3S)-3-methylmorpholin-4-yl]-4,5′-bipyrimidin-6-yl}amino)-3-(hydroxymethyl)pyrrolidine-1-carboxylate], the Ki (read-out: PI3KA_Act Ki) is less than 0.018 nM.

Consider `C[C@H]1COCCN1c1nc(N[C@@]2(CO)CCNC2)c(F)c(-c2cnc(N)nc2)n1` [Example 112, [(3S)-3-({2′-amino-5-fluoro-2-[(3S)-3-methylmorpholin-4-yl]-4,5′-bipyrimidin-6-yl}amino)pyrrolidin-3-yl]methanol], for which the inhibition constant Ki (read-out: PI3KA_Act Ki) amounted to 1.01 nM.

`CCOC(=O)N1CC[C@](COC(C)=O)(Nc2cc(-c3cnc(N)nc3)nc(N3CCOCC3)n2)C1` [Example 113, ethyl (3S)-3-[(acetyloxy)methyl]-3-{[2′-amino-2-(morpholin-4-yl)-4,5′-bipyrimidin-6-yl]amino}pyrrolidine-1-carboxylate]: the Ki (read-out: PI3KA_Act Ki) was 3.23 nM.

On to `COC(=O)N1CC[C@](CO)(Nc2nc(N3CCOC[C@@H]3C)nc(-c3cnc(N)nc3)c2F)C1` [Example 114, methyl (3S)-3-({2′-amino-5-fluoro-2-[(3S)-3-methylmorpholin-4-yl]-4,5′-bipyrimidin-6-yl}amino)-3-(hydroxymethyl)pyrrolidine-1-carboxylate], for which the inhibition constant Ki (read-out: PI3KA_Act Ki) is less than 0.018 nM.

For `Nc1ncc(-c2nc(N3CCOCC3)nc(N[C@@]3(CO)CCN(C(=O)C4(F)CCC4)C3)c2F)cn1` [Example 115, [(3S)-3-{[2′-amino-5-fluoro-2-(morpholin-4-yl)-4,5′-bipyrimidin-6-yl]amino}-3-(hydroxymethyl)pyrrolidin-1-yl](1-fluorocyclobutyl)methanone], under “read-out: PI3KA_Act Ki”, the inhibitory constant (Ki) came to 0.036 nM.

Take `C[C@H]1COCCN1c1nc(N[C@@]2(CO)CCN(C(=O)OC3CC3)C2)c(F)c(-c2cnc(N)nc2)n1` [Example 117, cyclopropyl (3S)-3-({2′-amino-5-fluoro-2-[(3S)-3-methylmorpholin-4-yl]-4,5′-bipyrimidin-6-yl}amino)-3-(hydroxymethyl)pyrrolidine-1-carboxylate]: the inhibitory constant (Ki) (read-out: PI3KA_Act Ki) is less than 0.018 nM.

In the case of `CCOC(=O)N1CC[C@](CO)(Nc2nc(-c3cnc(N)nc3)nc(N3CCOC[C@@H]3C)n2)C1` [Example 118, ethyl (3S)-3-({4-(2-aminopyrimidin-5-yl)-6-[(3S)-3-methylmorpholin-4-yl]-1,3,5-triazin-2-yl}amino)-3-(hydroxymethyl)pyrrolidine-1-carboxylate], the Ki (read-out: PI3KA_Act Ki) is less than 0.018 nM.

As for `C[C@H]1COCCN1c1nc(N[C@@]2(CO)CCN(C(=O)OCC(F)F)C2)c(F)c(-c2cnc(N)nc2)n1` [Example 119, 2,2-difluoroethyl (3S)-3-({2′-amino-5-fluoro-2-[(3S)-3-methylmorpholin-4-yl]-4,5′-bipyrimidin-6-yl}amino)-3-(hydroxymethyl)pyrrolidine-1-carboxylate], the Ki (PI3KA_Act Ki (nM)) was less than 0.018 nM.

For `C[C@H]1COCCN1c1nc(N[C@@]2(CO)CCN(C(=O)C3CC3)C2)c(F)c(-c2cnc(N)nc2)n1` [Example 120, [(3S)-3-({2′-amino-5-fluoro-2-[(3S)-3-methylmorpholin-4-yl]-4,5′-bipyrimidin-6-yl}amino)-3-(hydroxymethyl)pyrrolidin-1-yl](cyclopropyl)methanone], the Ki (read-out: PI3KA_Act Ki) was less than 0.018 nM.

`CCOC(=O)N1CC[C@](COC)(Nc2cc(-c3cnc(N)nc3)nc(N3CCOCC3)n2)C1` [Example 121, ethyl (3S)-3-{[2′-amino-2-(morpholin-4-yl)-4,5′-bipyrimidin-6-yl]amino}-3-(methoxymethyl)pyrrolidine-1-carboxylate]: the Ki (read-out: PI3KA_Act Ki) turned out to be 0.15 nM.

Turning to `COC[C@]1(Nc2cc(-c3cnc(N)nc3)nc(N3CCOCC3)n2)CCNC1` [Example 122, N˜6˜-[(3S)-3-(methoxymethyl)pyrrolidin-3-yl]-2-(morpholin-4-yl)-4,5′-bipyrimidine-2′,6-diamine], the Ki (read-out: PI3KA_Act Ki) came out at 21.5 nM.

As for `CC(C)(C)OC(=O)N1CCCC(CO)(Nc2cc(-c3cnc(N)nc3)nc(N3CCOCC3)n2)C1` (stereo not shown) [Example 123, tert-butyl 3-{[2′-amino-2-(morpholin-4-yl)-4,5′-bipyrimidin-6-yl]amino}-3-(hydroxymethyl)piperidine-1-carboxylate], the inhibitory constant (Ki) (read-out: PI3KA_Act Ki) stood at 1.7 nM.

On to `C[C@H]1COCCN1c1nc(N[C@@]2(CF)CCN(C(=O)OC(C)(C)C)C2)cc(-c2cnc(N)nc2)n1` [Example 124, tert-butyl (3S)-3-({2′-amino-2-[(3S)-3-methylmorpholin-4-yl]-4,5′-bipyrimidin-6-yl}amino)-3-(fluoromethyl)pyrrolidine-1-carboxylate], for which the Ki (read-out: PI3KA_Act Ki) came out at 0.046 nM.

With `Cc1ncc(-c2cc(N[C@@]3(CO)CCN(C(=O)OC(C)(C)C)C3)nc(N3CCOCC3)n2)cc1C#N` [Example 125, tert-butyl (3S)-3-{[6-(5-cyano-6-methylpyridin-3-yl)-2-(morpholin-4-yl)pyrimidin-4-yl]amino}-3-(hydroxymethyl)pyrrolidine-1-carboxylate], where the note is “read-out: PI3KA_Act Ki”, the inhibitory constant (Ki) turned out to be 118 nM.

As for `Cc1ncc(-c2cc(N[C@@]3(CO)CCN(C(=O)OC(C)(C)C)C3)nc(N3CCOCC3)n2)cn1` [Example 126, tert-butyl (3S)-3-(hydroxymethyl)-3-{[2′-methyl-2-(morpholin-4-yl)-4,5′-bipyrimidin-6-yl]amino}pyrrolidine-1-carboxylate], the Ki (read-out: PI3KA_Act Ki) was determined as 1.92 nM.

Consider `Cc1ncc(-c2cc(N[C@@]3(CO)CCN(C(=O)OC(C)(C)C)C3)nc(N3CCOCC3)n2)cc1F` [Example 127, tert-butyl (3S)-3-{[6-(5-fluoro-6-methylpyridin-3-yl)-2-(morpholin-4-yl)pyrimidin-4-yl]amino}-3-(hydroxymethyl)pyrrolidine-1-carboxylate], for which the Ki (read-out: PI3KA_Act Ki) was found to be 19 nM.
